Here are results for three compounds from patent US12479847B2 (DANA-FARBER CANCER INSTITUTE, INC., priority 2019, dated 2025).

Assay in all cases: KINOMEscan (ScanMAX) kinase profiling
Common to all, as to assay type: binding

The target of test [1] is T1, panel of 468 kinases (Homo sapiens, UniProt P20794).
T1 construct: purchased KINOMEscan (ScanMAX) service
T1 sequence (P20794 1-623): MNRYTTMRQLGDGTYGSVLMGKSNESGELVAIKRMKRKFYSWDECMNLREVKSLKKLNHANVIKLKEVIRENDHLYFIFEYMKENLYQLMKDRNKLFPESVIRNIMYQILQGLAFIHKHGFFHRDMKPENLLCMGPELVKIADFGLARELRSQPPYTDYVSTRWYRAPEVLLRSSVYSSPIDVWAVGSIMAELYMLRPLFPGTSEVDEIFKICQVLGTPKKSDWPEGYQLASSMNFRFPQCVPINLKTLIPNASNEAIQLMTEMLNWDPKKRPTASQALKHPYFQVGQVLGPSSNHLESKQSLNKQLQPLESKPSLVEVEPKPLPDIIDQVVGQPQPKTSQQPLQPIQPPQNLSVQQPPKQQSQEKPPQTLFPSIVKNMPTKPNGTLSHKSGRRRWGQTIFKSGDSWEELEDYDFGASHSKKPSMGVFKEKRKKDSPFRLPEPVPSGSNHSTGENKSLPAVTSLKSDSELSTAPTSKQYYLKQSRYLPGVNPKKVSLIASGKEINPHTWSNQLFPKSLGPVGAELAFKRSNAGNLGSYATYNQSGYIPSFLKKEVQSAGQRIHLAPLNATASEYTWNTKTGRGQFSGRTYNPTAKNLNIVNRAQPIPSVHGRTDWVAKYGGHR
Particulars: MAK; 1 μM; read-out: % control.

Test [2] has as its target T2, panel of 468 kinases (Homo sapiens, UniProt P25098).
T2 construct: purchased KINOMEscan (ScanMAX) service
T2 sequence (P25098 1-689): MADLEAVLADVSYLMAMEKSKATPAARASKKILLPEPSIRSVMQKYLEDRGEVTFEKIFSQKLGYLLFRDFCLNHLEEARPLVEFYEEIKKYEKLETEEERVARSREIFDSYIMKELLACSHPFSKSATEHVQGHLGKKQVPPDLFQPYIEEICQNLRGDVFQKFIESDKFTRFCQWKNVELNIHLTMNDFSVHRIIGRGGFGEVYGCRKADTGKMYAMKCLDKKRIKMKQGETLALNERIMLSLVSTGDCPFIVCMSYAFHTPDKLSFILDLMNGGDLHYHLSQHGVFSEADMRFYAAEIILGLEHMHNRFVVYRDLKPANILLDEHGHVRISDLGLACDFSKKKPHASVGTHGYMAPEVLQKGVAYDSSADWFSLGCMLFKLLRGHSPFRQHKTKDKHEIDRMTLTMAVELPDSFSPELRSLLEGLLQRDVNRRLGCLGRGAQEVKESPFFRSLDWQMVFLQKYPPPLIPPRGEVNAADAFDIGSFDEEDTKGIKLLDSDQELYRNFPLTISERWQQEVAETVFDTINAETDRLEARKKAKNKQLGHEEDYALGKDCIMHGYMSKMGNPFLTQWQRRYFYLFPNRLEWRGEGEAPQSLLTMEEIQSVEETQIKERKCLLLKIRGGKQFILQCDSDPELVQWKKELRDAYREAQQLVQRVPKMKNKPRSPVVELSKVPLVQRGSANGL
To be noted: GRK2; 1 μM; read-out: % control.

The target in test [3] is T3, panel of 468 kinases (Homo sapiens, UniProt P29376).
T3 construct: purchased KINOMEscan (ScanMAX) service
To be noted: LTK; 1 μM; read-out: % control.

Test [4] concerns the target T4, panel of 468 kinases (Homo sapiens, UniProt Q06418).
T4 construct: purchased KINOMEscan (ScanMAX) service
T4 sequence (Q06418 41-890): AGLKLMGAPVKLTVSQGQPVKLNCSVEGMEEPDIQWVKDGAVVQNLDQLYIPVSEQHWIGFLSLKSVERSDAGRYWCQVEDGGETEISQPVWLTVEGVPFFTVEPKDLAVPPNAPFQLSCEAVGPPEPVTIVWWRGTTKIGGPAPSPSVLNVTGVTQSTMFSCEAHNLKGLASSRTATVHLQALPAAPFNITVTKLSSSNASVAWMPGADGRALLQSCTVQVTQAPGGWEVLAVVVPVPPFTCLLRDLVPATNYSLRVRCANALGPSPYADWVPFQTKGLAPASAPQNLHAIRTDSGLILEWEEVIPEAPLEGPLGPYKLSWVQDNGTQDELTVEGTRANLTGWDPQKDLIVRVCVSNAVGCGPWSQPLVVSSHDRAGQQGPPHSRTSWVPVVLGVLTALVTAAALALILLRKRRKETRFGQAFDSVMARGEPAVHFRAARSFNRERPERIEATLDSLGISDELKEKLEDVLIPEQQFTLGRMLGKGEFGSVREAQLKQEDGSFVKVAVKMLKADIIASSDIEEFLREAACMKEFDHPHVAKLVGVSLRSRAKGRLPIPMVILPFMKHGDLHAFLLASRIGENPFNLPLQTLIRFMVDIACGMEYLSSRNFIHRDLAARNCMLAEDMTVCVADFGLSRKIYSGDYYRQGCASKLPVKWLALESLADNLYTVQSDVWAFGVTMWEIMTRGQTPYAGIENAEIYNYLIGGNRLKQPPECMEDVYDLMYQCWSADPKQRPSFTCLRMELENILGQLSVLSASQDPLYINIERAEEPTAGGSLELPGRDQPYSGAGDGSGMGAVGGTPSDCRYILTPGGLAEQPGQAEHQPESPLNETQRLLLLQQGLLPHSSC
To be noted: TYRO3; 1 μM; read-out: % control.

Test [5] has as its target T5, panel of 468 kinases (Homo sapiens, UniProt Q13523).
T5 construct: purchased KINOMEscan (ScanMAX) service
To be noted: PRP4; 1 μM; read-out: % control.

SMILES strings stand for the structures.

T5 sequence (Q13523 whole entry): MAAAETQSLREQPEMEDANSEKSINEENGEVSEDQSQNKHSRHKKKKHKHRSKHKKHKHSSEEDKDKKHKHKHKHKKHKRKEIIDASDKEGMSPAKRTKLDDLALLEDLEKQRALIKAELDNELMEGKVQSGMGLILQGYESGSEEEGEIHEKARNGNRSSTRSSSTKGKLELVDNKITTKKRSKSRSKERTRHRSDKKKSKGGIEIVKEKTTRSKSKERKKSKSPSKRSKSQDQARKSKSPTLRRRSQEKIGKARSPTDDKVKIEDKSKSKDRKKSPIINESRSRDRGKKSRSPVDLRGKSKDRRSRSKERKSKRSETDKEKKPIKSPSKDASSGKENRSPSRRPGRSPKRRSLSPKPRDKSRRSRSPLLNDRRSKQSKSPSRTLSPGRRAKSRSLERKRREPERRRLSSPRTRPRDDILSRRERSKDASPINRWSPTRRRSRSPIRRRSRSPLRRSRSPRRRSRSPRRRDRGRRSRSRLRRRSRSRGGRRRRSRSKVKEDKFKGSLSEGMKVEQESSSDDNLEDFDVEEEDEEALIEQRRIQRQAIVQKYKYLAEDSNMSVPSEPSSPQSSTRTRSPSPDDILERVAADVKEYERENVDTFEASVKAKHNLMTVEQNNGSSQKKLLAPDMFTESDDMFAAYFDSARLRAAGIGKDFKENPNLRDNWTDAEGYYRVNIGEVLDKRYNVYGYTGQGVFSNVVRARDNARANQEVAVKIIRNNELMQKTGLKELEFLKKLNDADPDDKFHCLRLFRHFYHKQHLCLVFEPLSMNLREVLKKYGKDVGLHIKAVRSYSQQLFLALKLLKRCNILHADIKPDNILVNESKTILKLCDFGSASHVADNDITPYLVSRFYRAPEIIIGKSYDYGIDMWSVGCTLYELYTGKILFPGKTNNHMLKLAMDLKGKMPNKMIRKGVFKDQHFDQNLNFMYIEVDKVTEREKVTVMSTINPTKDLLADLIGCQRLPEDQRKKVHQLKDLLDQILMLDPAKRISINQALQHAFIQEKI
T3 sequence (P29376 17-864): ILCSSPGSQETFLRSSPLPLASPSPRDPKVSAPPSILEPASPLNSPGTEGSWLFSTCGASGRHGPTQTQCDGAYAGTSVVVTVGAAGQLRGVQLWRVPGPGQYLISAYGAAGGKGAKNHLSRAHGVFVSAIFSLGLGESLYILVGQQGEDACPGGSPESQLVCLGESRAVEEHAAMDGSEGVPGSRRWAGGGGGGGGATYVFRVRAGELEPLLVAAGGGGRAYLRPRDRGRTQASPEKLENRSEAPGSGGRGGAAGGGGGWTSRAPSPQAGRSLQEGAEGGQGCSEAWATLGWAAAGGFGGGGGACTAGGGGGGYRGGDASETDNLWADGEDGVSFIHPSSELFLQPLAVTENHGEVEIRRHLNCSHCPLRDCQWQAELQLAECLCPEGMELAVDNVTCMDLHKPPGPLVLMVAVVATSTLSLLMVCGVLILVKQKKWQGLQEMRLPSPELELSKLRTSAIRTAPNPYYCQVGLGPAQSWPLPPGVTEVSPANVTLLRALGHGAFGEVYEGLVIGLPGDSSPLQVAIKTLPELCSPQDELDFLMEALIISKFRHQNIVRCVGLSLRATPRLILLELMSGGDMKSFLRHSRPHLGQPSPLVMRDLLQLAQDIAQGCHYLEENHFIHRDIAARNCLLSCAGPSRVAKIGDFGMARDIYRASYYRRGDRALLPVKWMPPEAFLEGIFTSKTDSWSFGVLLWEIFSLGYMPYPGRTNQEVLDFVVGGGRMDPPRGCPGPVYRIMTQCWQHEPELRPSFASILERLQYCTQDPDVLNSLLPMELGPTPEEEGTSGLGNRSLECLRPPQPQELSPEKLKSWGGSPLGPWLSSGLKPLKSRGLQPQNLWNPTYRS

Take `CNc1nc(Nc2ccc(S(=O)(=O)N3CCC(N4CCOCC4)CC3)cc2OC)nc2[nH]cc(Cl)c12` [Compound 12, 5-chloro-N2-(2-methoxy-4-((4-morpholinopiperidin-1-yl)sulfonyl)phenyl)-N4-methyl-7H-pyrrolo[2,3-d]pyrimidine-2,4-diamine]: the remaining binding at 1 µM on panel of 468 kinases [1] stood at 100%; on panel of 468 kinases [2], 100%; at panel of 468 kinases [3], 22%; on panel of 468 kinases [4], 100%; at panel of 468 kinases [5] it was 100%.
With `CNc1nc(Nc2ccc(P3(=O)CCN(C4CCOCC4)CC3)cc2OC)nc2[nH]cc(Cl)c12` [Compound 77, 4-(4-((5-chloro-4-(methylamino)-7H-pyrrolo[2,3-d]pyrimidin-2-yl)amino)-3-methoxyphenyl)-1-(tetrahydro-2H-pyran-4-yl)-1,4-azaphosphinane 4-oxide], the remaining binding at 1 µM on panel of 468 kinases [1] worked out at 100%; on panel of 468 kinases [2] it was 98%; on panel of 468 kinases [3], 21%; at panel of 468 kinases [4], 100%; at panel of 468 kinases [5], 100%.
Regarding `CNc1nc(Nc2ccc(C(=O)N3CCC(N4CCOCC4)CC3)c3c2OCO3)nc2[nH]cc(Cl)c12` [Compound 75, (7-((5-chloro-4-(methylamino)-7H-pyrrolo[2,3-d]pyrimidin-2-yl)amino)benzo[d][1,3]dioxol-4-yl)(4-morpholinopiperidin-1-yl)methanone], the remaining binding at 1 µM stood at 100% on panel of 468 kinases [1]; 100% on panel of 468 kinases [2]; 19% at panel of 468 kinases [3]; 100% at panel of 468 kinases [4]; 100% on panel of 468 kinases [5].
